Source: the NIST ThermoML archive (doi:10.1021/acs.jced.7b00427)

Conditions: Gas, Buoyancy - hydrostatic balance with magnetic suspension - one sinker

C=C(F)C(F)(F)F [2,3,3,3-tetrafluoro-1-propene]
Conditions	mass density [kg/m3]
252.64 K, 70 kPa	3.88
252.64 K, 110 kPa	6.265
252.64 K, 124 kPa	7.097
262.07 K, 81 kPa	4.341
262.08 K, 113 kPa	6.19
262.08 K, 136 kPa	7.456
262.08 K, 157 kPa	8.696
262.08 K, 169 kPa	9.424
270.18 K, 105 kPa	5.505
270.18 K, 132 kPa	6.952
270.18 K, 172 kPa	9.215
270.18 K, 232 kPa	12.71
270.19 K, 256 kPa	14.125
279.64 K, 75 kPa	3.732
279.65 K, 118 kPa	5.957
279.65 K, 168 kPa	8.6
279.65 K, 219 kPa	11.398
279.66 K, 261 kPa	13.822
279.66 K, 302 kPa	16.231
279.67 K, 352 kPa	19.153
289.17 K, 279 kPa	14.228
289.17 K, 433 kPa	23.141
289.18 K, 186 kPa	9.245
289.18 K, 223 kPa	11.205
289.18 K, 344 kPa	17.869
289.18 K, 502 kPa	27.513
289.19 K, 84 kPa	4.052
289.19 K, 143 kPa	7.017
298.63 K, 249 kPa	12.098
298.63 K, 312 kPa	15.415
298.63 K, 363 kPa	18.154
298.63 K, 419 kPa	21.272
298.63 K, 599 kPa	32.147
298.63 K, 647 kPa	35.336
298.64 K, 134 kPa	6.319
298.64 K, 204 kPa	9.779
308.12 K, 125 kPa	5.711
308.12 K, 242 kPa	11.284
308.13 K, 188 kPa	8.693
308.13 K, 282 kPa	13.311
308.13 K, 367 kPa	17.655
308.13 K, 460 kPa	22.624
308.14 K, 517 kPa	25.797
308.14 K, 551 kPa	27.714
308.14 K, 608 kPa	31.08
308.14 K, 741 kPa	39.419
317.63 K, 418 kPa	19.56
317.63 K, 514 kPa	24.547
317.63 K, 613 kPa	30.022
317.63 K, 892 kPa	46.934
317.64 K, 202 kPa	9.037
317.64 K, 351 kPa	16.204
317.66 K, 116 kPa	5.083
317.66 K, 166 kPa	7.365
327.25 K, 522 kPa	23.936
327.25 K, 597 kPa	27.809
327.25 K, 825 kPa	40.447
327.25 K, 1152 kPa	61.545
327.26 K, 299 kPa	13.167
327.26 K, 372 kPa	16.57
327.26 K, 463 kPa	20.996
327.27 K, 97 kPa	4.113
327.27 K, 153 kPa	6.549
327.27 K, 235 kPa	10.227
336.67 K, 110 kPa	4.549
336.67 K, 321 kPa	13.728
336.67 K, 424 kPa	18.45
336.67 K, 501 kPa	22.051
336.67 K, 618 kPa	27.852
336.67 K, 667 kPa	30.331
336.67 K, 693 kPa	31.586
336.67 K, 873 kPa	41.236
336.67 K, 1254 kPa	64.685
336.67 K, 1683 kPa	100.038
336.68 K, 237 kPa	10.013
345.74 K, 1557 kPa	81.658
345.74 K, 1910 kPa	112.152
345.75 K, 517 kPa	21.914
345.75 K, 739 kPa	32.609
345.75 K, 886 kPa	40.193
345.75 K, 1229 kPa	59.662
345.76 K, 145 kPa	5.863
345.76 K, 305 kPa	12.598
